Here are results for one molecule from article PMC3062473 (ChemMedChem, 2010).

Where only a bound is given, the exact number is not on record here.

The target in test [1] is T1, Caspase 9 (Homo sapiens, UniProt P55211).
T1 sequence (P55211 1-315 limits assumed): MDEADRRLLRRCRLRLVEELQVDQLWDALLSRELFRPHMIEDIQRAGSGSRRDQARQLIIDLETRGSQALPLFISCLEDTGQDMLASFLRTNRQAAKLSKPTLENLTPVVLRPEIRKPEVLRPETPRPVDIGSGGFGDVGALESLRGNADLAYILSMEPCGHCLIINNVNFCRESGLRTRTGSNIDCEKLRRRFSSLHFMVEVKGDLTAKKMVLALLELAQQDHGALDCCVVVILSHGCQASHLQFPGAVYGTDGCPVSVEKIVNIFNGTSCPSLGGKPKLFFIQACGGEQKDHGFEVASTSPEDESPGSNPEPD
T1 sequence (P55211 331-416 limits assumed): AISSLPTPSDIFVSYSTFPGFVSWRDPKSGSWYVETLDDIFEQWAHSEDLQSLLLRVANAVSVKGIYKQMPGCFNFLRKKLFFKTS
Particulars: read-out: Ki caspase 9; cited from earlier work.

The target in test [2] is T2, caspase 1 (Homo sapiens, UniProt P29466).
T2 sequence (P29466 120-297 limits assumed): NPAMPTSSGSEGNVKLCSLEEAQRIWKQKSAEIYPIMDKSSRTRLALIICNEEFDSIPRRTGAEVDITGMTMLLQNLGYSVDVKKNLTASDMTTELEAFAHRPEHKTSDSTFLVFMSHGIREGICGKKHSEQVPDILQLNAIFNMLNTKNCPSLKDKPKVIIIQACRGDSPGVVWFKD
T2 sequence (P29466 317-404 limits assumed): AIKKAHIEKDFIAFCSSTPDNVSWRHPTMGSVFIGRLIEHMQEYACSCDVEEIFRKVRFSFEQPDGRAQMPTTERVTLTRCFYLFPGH
The following applies: read-out: Ki caspase 1; cited from earlier work.

Test [3] has as its target T3, Caspase 10 (Homo sapiens, UniProt Q92851).
T3 sequence (Q92851 220-415 limits assumed): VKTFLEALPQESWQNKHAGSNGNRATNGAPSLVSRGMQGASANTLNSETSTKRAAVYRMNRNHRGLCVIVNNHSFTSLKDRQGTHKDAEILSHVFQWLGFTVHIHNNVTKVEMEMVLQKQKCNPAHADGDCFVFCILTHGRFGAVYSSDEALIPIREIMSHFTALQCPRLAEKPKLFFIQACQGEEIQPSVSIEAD
T3 sequence (Q92851 416-521 limits assumed): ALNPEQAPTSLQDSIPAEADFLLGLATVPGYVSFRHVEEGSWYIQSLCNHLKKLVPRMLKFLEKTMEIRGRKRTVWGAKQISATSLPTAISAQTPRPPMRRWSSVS
Briefly: Reaction Biology caspase panel. Type of test: biochemical. Particulars: read-out: Caspase 10 IC50; (Z-LEHD)2-R110 substrate; three separate experiments.

In test [4] the target is T2, caspase 1. Briefly: Reaction Biology caspase panel. Type of test: biochemical. The following applies: read-out: Caspase 1 IC50; (Z-LEHD)2-R110 substrate; three separate experiments.
Test [5] addresses T1, Caspase 9. Briefly: Reaction Biology caspase panel. Particulars: read-out: Caspase 9 IC50; (Z-LEHD)2-R110 substrate; three separate experiments. Type of test: biochemical.

As to `CC(C)(C)[C@H](NC(=O)c1ccc(N)c(Cl)c1)C(=O)N1CCC[C@H]1C(=O)N[C@H](C=O)CC(=O)O` [Compound 2b, reference compound], the Ki in test [1] is 1030 nM; in test [2], below 1 nM. In addition, the IC50 was 66.5 nM in test [3], 0.204 nM in test [4] and 5.07 nM in test [5].
